Measurements reported in ChEMBL document CHEMBL1127187, “Semisynthetic modification of hygromycin A. 2. synthesis and antibacterial activity of aryl analogs” (1993).
≈ marks a conversion by molar mass, not a printed value.

Assays:
Assay type in all cases: functional
Pasteurella multocida = assay: Antibacterial activity against Pasteurella multocida (an important animal respiratory pathogen).
[1] = test system: Brachyspira hyodysenteriae; assay: Antibacterial activity against Serpulina (Treponema) hyodysenteriae (the causative organism of swine dysentery).
[2] = test system: Brachyspira hyodysenteriae; assay: Compound was tested for antibacterial activity against Serpulina (Treponema hyodysenteriae (the causative organism of swine dysentery)

| Structure (SMILES) | MIC (Pasteurella multocida) [µg/mL] | MIC [1] [µg/mL] | MIC [2] [µg/mL] |
| --- | --- | --- | --- |
| C=CCOc1c(F)cc(/C=C(\C)C(=O)N[C@@H]2[C@H](O)[C@@H](O)[C@H]3OCO[C@H]3[C@@H]2O)c(F)c1O | 100 (≈ 226 µM) | 50 (≈ 113 µM) | – |
| C=CCOc1c(Br)cc(/C=C(/C)C(=O)N[C@@H]2[C@H](O)[C@@H](O)[C@H]3OCO[C@H]3[C@@H]2O)cc1Br | > 200 | > 200 | – |
| C=CCOc1c(F)cc(/C=C(/C)C(=O)N[C@@H]2[C@H](O)[C@@H](O)[C@H]3OCO[C@H]3[C@@H]2O)cc1F | > 200 | 25 (≈ 58.5 µM) | – |
| C=CCOc1c(O)cc(/C=C(/C)C(=O)N[C@@H]2[C@H](O)[C@@H](O)[C@H]3OCO[C@H]3[C@@H]2O)cc1Br | > 200 | > 200 | – |
| C=CCOc1ccc(/C=C(/C)C(=O)N[C@@H]2[C@H](O)[C@@H](O)[C@H]3OCO[C@H]3[C@@H]2O)cc1Br | > 200 | 12.5 (≈ 26.6 µM) | – |
| C=CCOc1ccc(/C=C(\C)C(=O)N[C@@H]2[C@H](O)[C@@H](O)[C@H]3OCO[C@H]3[C@@H]2O)c(Cl)c1 | > 200 | > 200 | – |
| C=CCOc1ccc(/C=C(\C)C(=O)N[C@@H]2[C@H](O)[C@@H](O)[C@H]3OCO[C@H]3[C@@H]2O)c(F)c1 | 25 (≈ 61.1 µM) | 3.13 (≈ 7.65 µM) | – |
| C=CCOc1ccc(/C=C(/C)C(=O)N[C@@H]2[C@H](O)[C@@H](O)[C@H]3OCO[C@H]3[C@@H]2O)cc1CO | 100 (≈ 237 µM) | – | – |
| C=CCOc1ccc(/C=C(/C)C(=O)N[C@@H]2[C@H](O)[C@@H](O)[C@H]3OCO[C@H]3[C@@H]2O)cc1F | 50 (≈ 122 µM) | 1.56 (≈ 3.81 µM) | – |
| C=CCOc1ccc(/C=C(/C)C(=O)N[C@@H]2[C@H](O)[C@@H](O)[C@H]3OCO[C@H]3[C@@H]2O)cc1NS(C)(=O)=O | > 200 | > 200 | – |
| C=CCOc1ccc(/C=C(/C)C(=O)N[C@@H]2[C@H](O)[C@@H](O)[C@H]3OCO[C@H]3[C@@H]2O)cc1N | 0.78 (≈ 1.92 µM) | 0.78 (≈ 1.92 µM) | – |
| C=CCOc1ccc(/C=C(/C)C(=O)N[C@@H]2[C@H](O)[C@@H](O)[C@H]3OCO[C@H]3[C@@H]2O)cc1OC | > 200 | > 200 | – |
| C=CCOc1ccc(/C=C(\C)C(=O)N[C@@H]2[C@H](O)[C@@H](O)[C@H]3OCO[C@H]3[C@@H]2O)cc1CNCC | > 200 | – | – |
| C=CCOc1cc(F)c(/C=C(/C)C(=O)N[C@@H]2[C@H](O)[C@@H](O)[C@H]3OCO[C@H]3[C@@H]2O)cc1F | 25 (≈ 58.5 µM) | 1.56 (≈ 3.65 µM) | – |
| C=CCOc1ccc(/C=C(/C)C(=O)N[C@@H]2[C@H](O)[C@@H](O)[C@H]3OCO[C@H]3[C@@H]2O)cc1 | 50 (≈ 128 µM) | 6.25 (≈ 16 µM) | – |
| C=CCOc1ccc(/C=C(/C)C(=O)N[C@@H]2[C@H](O)[C@@H](O)[C@H]3OCO[C@H]3[C@@H]2O)cc1O | 0.78 (≈ 1.91 µM) | – | 0.78 (≈ 1.91 µM) |
| C=CCOc1ccc(/C=C(/C)C(=O)N[C@@H]2[C@H](O)[C@@H](O)[C@H]3OCO[C@H]3[C@@H]2O)cc1NC(C)=O | > 200 | > 200 | – |
| C=CCOc1ccc(/C=C(/C)C(=O)N[C@@H]2[C@H](O)[C@@H](O)[C@H]3OCO[C@H]3[C@@H]2O)cc1I | – | 100 (≈ 193 µM) | – |
| C=CCOc1ccc(/C=C(\C)C(=O)N[C@@H]2[C@H](O)[C@@H](O)[C@H]3OCO[C@H]3[C@@H]2O)c(F)c1F | > 200 | 25 (≈ 58.5 µM) | – |
| C=CCOc1ccc(/C=C(/C)C(=O)N[C@@H]2[C@H](O)[C@@H](O)[C@H]3OCO[C@H]3[C@@H]2O)cc1C(=O)O | > 200 | > 200 | – |
| C=CCOc1ccc(/C=C(/C)C(=O)N[C@@H]2[C@H](O)[C@@H](O)[C@H]3OCO[C@H]3[C@@H]2O)cc1NC | > 200 | > 200 | – |
| C=CCOc1ccc(/C=C(/C)C(=O)N[C@@H]2[C@H](O)[C@@H](O)[C@H]3OCO[C@H]3[C@@H]2O)cc1C | 50 (≈ 123 µM) | 6.25 (≈ 15.4 µM) | – |
| C=CCOc1c(O)cc(/C=C(/C)C(=O)N[C@@H]2[C@H](O)[C@@H](O)[C@H]3OCO[C@H]3[C@@H]2O)cc1C#N | > 200 | > 200 | – |
| C=CCOc1ccc(/C=C(/C)C(=O)N[C@@H]2[C@H](O)[C@@H](O)[C@H]3OCO[C@H]3[C@@H]2O)cc1Cl | – | 3.13 (≈ 7.35 µM) | – |
| C=CCOc1c(C)cc(/C=C(/C)C(=O)N[C@@H]2[C@H](O)[C@@H](O)[C@H]3OCO[C@H]3[C@@H]2O)cc1C | > 200 | > 200 | – |
| C=CCOc1ccc(/C=C(\C)C(=O)N[C@@H]2[C@H](O)[C@@H](O)[C@H]3OCO[C@H]3[C@@H]2O)c(OC)c1 | > 200 | > 200 | – |
| C=CCOc1c(O)cc(/C=C(/C)C(=O)N[C@@H]2[C@H](O)[C@@H](O)[C@H]3OCOC3[C@@H]2O)cc1OC (single isomer, unassigned) | > 200 | > 200 | – |
| CC(=O)[C@H]1O[C@@H](Oc2ccc(C=C(C)C(=O)N[C@@H]3[C@H](O)[C@@H](O)[C@H]4OCO[C@H]4[C@@H]3O)cc2O)[C@@H](O)[C@@H]1O [HYGROMYCIN A] | 0.78 (≈ 1.52 µM) | 0.78 (≈ 1.52 µM) | – |
